According to patent US20210315175A1, “METHODS OF MAKING FEMINIZED CANNABIS SATIVA SEED AND COMPOSITIONS THEREOF” (priority 2019, published 2021):

How the values were obtained:
[1] = tested on: genetically female Cannabis ssp plants; assay: 1-MCP root drench: induction of male flowers (Example 19); assay type: in vivo; details: 0.27 mM or 0.54 mM 1-MCP root drench, three treatments, 3 varieties
Description: To determine if the ethylene inhibitor 1-Methylcyclopropene (1-MCP) can induce male flowers on genetically female Cannabis ssp plants, 1-MCP was applied at two different rates to 3 different varieties, with 2 replicates per treatment. The plants were treated with 1-MCP three times, with the first treatment 51 days after seeding, which was on the day plants were transitioned from a vegetative, long day photoperiod (18 h day) to a reproductive, short day photoperiod (12 h day), the second treatment was applied 7 days later and the third treatment was 8 days after the second. For the first two treatments the low rate was 0.27 mM 1-MCP and 25 ml solution per plant was immediately applied as a root drench. The high rate was 0.54 mM and similarly, 25 ml of solution was applied as a root drench. For the third treatment, the dose was doubled by applying 50 ml of the solutions described above, as the plants were larger.

[2] = tested on: genetically female Cannabis ssp plants; assay: AIB root drench: induction of male flowers and phytotoxicity (Example 21); assay type: in vivo
Description: To determine if the ethylene inhibitor 2-Aminoisobutyric acid (AIB) can induce male flowers on genetically female Cannabis ssp plants, three different rates of 2-Aminoisobutyric acid (AIB) were applied to plants as a root drench, with two applications per rate. The first application occurred 79 days after seeding, which was on the day plants were transitioned from a vegetative, long day photoperiod (18 h day) to a reproductive, short day photoperiod (12 h day), and the second treatment was applied 5 days later. The stem diameter of the plants on the day of the first treatment were 9 to 10 mm and the plants ranged from 37 to 54 cm in height. The three rates tested were 50, 150 and 300 mM AIB in water, and 150 ml of solution was applied to the roots as a soil drench.

For `CC1=CC1` [1-MCP, 1-Methylcyclopropene], the chlorosis [1] was “mild chlorosis of growing apices” and the male structures [1] was “no clear or consistent male structures were observed in any of the treatments”.

In the case of `CC(C)(N)C(=O)O` [AIB, 2-Aminoisobutyric acid], the “survival and male structures” value ([2]; 50 and 150 mM AIB, two root drenches) is reported as “survived and produced small male structures that did not produce viable pollen”, the phytotoxicity ([2]; after the second treatment, particularly in the highest rate) is reported as “more severe phototoxicity” and the plant survival ([2]; highest rate (300 mM AIB), two root drenches) is reported as “the plant ultimately died”. The “phytotoxicity in leaf and meristematic tissues” value ([2]; within 2 days of the first treatment, 50, 150 and 300 mM AIB, 150 ml root drench) was “Mild phytotoxicity”.
